# Laboratory results as given in paper PMC4482662, “Engineered Trehalose Permeable to Mammalian Cells” (PLoS ONE, 2015).
# Tests used:
# rat hepatocytes [1] = assay: Uptake and intracellular deacetylation of acetylated trehalose in cultured rat hepatocytes (trehalase assay kit, total after NaOH hydrolysis); type: in vitro ADME; conditions: 30 mM incubation
# Source text: Rat hepatocytes were provided by the Cell Resource Center (CRC) at the Center for Engineering in Medicine at Massachusetts General Hospital. Briefly, hepatocytes were obtained from female Lewis rats using a two-step collagenase protocol. Two or three month old rat (Charles River Laboratories, Wilmington, MA) weighing 180–200 g were used as hepatocyte source and were maintained in accordance with National Research Council guidelines. Experimental protocols in practice at CRC for the use of hepatocytes in this study were approved by the subcommittee on Research Animal Care, Massachusetts General Hospital. Using a modification of the two-step collagenase perfusion method, which involved purification of cell suspension by means of centrifugation over Percoll, approximately 200 million hepatocytes per rat liver with 85–95% viability were routinely obtained, as evaluated by Trypan blue exclusion. Hepatocytes were kept on ice and were plated within 1 h of isolation.
# For trehalose loading experiments, 6-well plates were treated with 25μg/mL fibronectin for 1 h prior to plating the hepatocytes, at which point the wells were washed with PBS and the hepatocytes were seeded at 1.2–1.3×10^6 cells/well. The cells were allowed 24–48 h to attach and spread in a 10% (v/v) CO2 incubator at 37°C before they were incubated with acetylated variants of trehalose. […]
# The cell lysates were analyzed for protein content using a Bradford Commassie assay for cell count approximation. Trehalose content of cell lysates were measured using a trehalose assay kit following the manufacturer’s protocol. […] This solution was analyzed for total trehalose content against the trehalose controls prepared in a similar fashion, and the concentration was adjusted for the dilution due to addition of NaOH and HCl. To estimate the number of cells, protein content of the cell lysate was assessed using the Pierce^TM Coomassie Plus (Bradford) assay (Life Technologies, Grand Island, NY, USA). […]
# [2] = Diffusion-reaction model fitted to the uptake data (membrane permeability and esterase kinetics); type: in vitro ADME, rat; conditions: female, Lewis, rat, not told, pH 7.1, read-out: P, membrane permeability
# Source text: (§1) We assume a lumped passive diffusion model for (n)-O-Ac-Tre across the cell membrane, the rate of change in the intracellular concentration of variants of (n)-O-Ac-Tre, C n, may be expressed using Fick’s first law: d[Cn]/dt=−PnA/V([Cn*]−[Cn]), (1) where P n is the membrane permeability of (n)-O-Ac-Tre. Parameters A and V are cell surface area available for transport and cell volume, respectively. Cn* is the extracellular concentration of (n)-O-Ac-Tre, which is equal to zero for all n<6. For the intracellular de-acetylation of (n)-O-Ac-Tre to (n-1)-O-Ac-Tre by esterase activity, we assume enzymatic reaction kinetics as the following: (n)-O-Ac-Tre+E→knf←knr[(n)-O-Ac-Tre+E]→kncat(n-1)-O-Ac-Tre+E where knf,knr and kncat are the kinetic reaction constants for (n)-O-Ac-Tre variants ranging from 6 to 0. We may assume that the process of de-acetylation of 6-O-Ac-Tre is a series of parallel first order enzymatic reactions competing for enzyme molecules (Fig 2).
# (§2) Based on the proposed reaction model, the rate of change in the concentration of (n)-O-Ac-Tre ([C n]) and the intermediate ([C n E]) can be expressed as: d[Cn]/dt=−knf[Cn][En]+knr[CnE]+kn+1cat[Cn+1E]−PnA/V([Cn]−[Cn*]) (2) d[CnE]/dt=knf[Cn][En]−knr[CnE]−kncat[CnE] (3)
# (§3) In the above set of equations, [E n] is the fraction of the free enzyme that would interact with [C n]. Assuming quasi-steady-state condition, the left-hand-side of Eq (3) is zero. […] [CnE]=knf[Cn][En]/(knr+kncat) (4)
# (§4) We may assume that the probablity of the free enzyme interaction with variants of 6-O-Ac-Tre is directly proportional to respective mole fractions, x n: [En]=[E][Cn]/∑n[Cn]=[E]xn (5) where [E] is the concentration of the free enzyme, which can also be expressed as [E] = [E 0]−∑[C n E]. By replacing Eq (5) in Eq (4), summation over n, and rearranging, we get: [E]=[E0]/1+∑([Cn][xn]/Knm) (6) where Knm=knr+kncat/knf is equivalent of the Michaelis-Menten constant for the enzymatic break-down of (n)-O-Ac-Tre variant. After substituting Eq (6) and Eq (4) in Eq (2) and rearranging, we can propose the rate of change in the concentration of (n)-O-Ac-Tre as the following: d[Cn]/dt=−Vnmax[Cn]xn/Knm(1+∑([Cn][xn]/Knm))+Vn+1max[Cn+1]xn+1/Kn+1m(1+∑([Cn][xn]/Knm))+PnA/V([Cn*]−[Cn]) (7) where Vnmax=kncat[E0] . For trehalose and 6-O-Ac-Tre, the first and second terms on the rights hand side of […] are omitted, respectively. Eq (7) is the general form of the Michaelis-Menten formulation of a multi-step enzymatic reaction for this specific case.
# (§5) The permeability coefficient P n, and the coefficients Vnmax and K n in the above list of equations are unknown since no data is available in the literature on these novel molecules to be used in the model. Therefore, the values of these parameters were obtained by fitting the model to the data using a custom-written code in MATLAB (The MathWorks, Natick, MA, USA).
# (§6) The proposed diffusion-reaction model in the Methods section allows calculating the permeability coefficients for 6-O-Ac-Tre by fitting the model to the experimental results for 6-O-Ac-Tre. First, we made a few simplifying assumptions. […] We also assumed that the enzymatic kinetics of the de-acetylation process were similar for all the steps of hydrolysis of (n)-O-Ac-Tre to (n-1)-O-Ac-Tre. Therefore, Knm=K^m and Vnmax=V^max for n≤6.
# (§7) The model was fit to 3 separate data sets obtained from incubation of cells with 5, 15 and 30 mM 6-O-Ac-Tre, each obtained consisting out of total trehalose and total (n)-O-Ac-Tre variants concentration data (Fig 4, also see S1 Fig). The model was fit to the data up to 9 h incubation. The results are plotted in Fig 4. Using only 3 fitting parameters, the model fit all the 6 data sets very closely with nonlinear regression coefficient R^2 values >0.92. By increasing the incubation concentration from 5 to 30 mM, the value of permeability increased from 2.2×10^−9 to 8.0×10^−9 m s^-1 resulting in an average of 5.0±3.4×10^−9 m s^-1.
# rat hepatocytes [3] = assay: as above; type: in vitro ADME
# Source text: as §1, §2, §3, §4, §5, §6, §7
# rat hepatocytes [4] = assay: Mitochondrial membrane potential (JC-1, Mito-Tracker Red) after loading; type: cell-based; conditions: after 6 h incubation
# Method: To determine mitochondrial function after incubation with acetylated trehalose, we used JC-1 for membrane potential and Mito-Tracker Red CMRox for imaging following the manufacturers’ protocols. The hepatocytes were seeded in fibronectin-coated plates and were allowed to attach and spread for 24–48 h. Then, the cells were incubated with 30 mM 6-O-Ac-Tre and 25 mM HEPES for 6 h, after which the wells were washed with excess medium and the cells incubated for 24 h before the assay. Immediately upon the start of incubation with staining agents, the plates were placed in the fluorescent plate reader and the fluorescence was read for 30 min at 579/599 nm excitation/emission wavelengths for Mito-Tracker and at 485 nm excitation and 530/590 nm emission wavelengths for the green and red channels respectively of JC-1. For imaging mitochondria, the hepatocytes were cultured on collagen-coated glass cover slips for 48 h, and were stained with Mito-Tracker Red 24 h after the incubation with 6-O-Ac-Tre for 6 h. The control group was prepared without incubation with 6-O-Ac-Tre. The cover slips were then washed with excess PBS and imaged using a Zeiss microscope with fluorescence capability.
# rat hepatocytes [5] = assay: MTT cell viability assay after loading; type: cell-based; conditions: 48 h after loading with 30 mM
# Method: To evaluate cell viability after incubation with acetylated trehalose compared to control group, […] 0.5 mg/ml. The cells were incubated with the MTT reagent for 2 hrs. At the end of incubation, the MTT reagent was removed and the cells were incubated with DMSO for 10 min to dissolve all crystallized formazan. Then, the concentration of formazan was assayed by reading the absorption values of the DMSO solution in a spectrophotometric plate reader at 560 nm.
# rat hepatocytes [6] = assay: Overall morphology of hepatocytes after loading; type: cell-based; conditions: post-loading incubation after 15 and 30 mM for 6 h
# Method: We next examined the long-term functional activity of hepatocytes after incubation with 6-O-Ac-Tre. The cells were incubated for 14 days following the incubation with 15 and 30 mM 6-O-Ac-Tre for 6 h (Fig 5). During the post-loading incubation, the cells were examined for overall morphology, viability and the albumin secretion. Mitochondrial membrane potential (ΔΨ) was also examined.
# rat hepatocytes [7] = assay: Hepatocyte albumin secretion ELISA, 14-day follow-up after loading; type: cell-based; design: dose or concentration left out as unconfirmed
# Method: The hepatocytes were seeded at 0.6×10^6 cell/well on the collagen gel in 12-well plates. Collagen gel was formed by the addition of 200 μL of collagen solution to each well and incubation for 20 min at 37°C. The cells were allowed to attach and spread at least 24 h before the experiments. […] After the collagen solution solidified, 0.5 mL of medium was added per well and the plate was incubated at 10% CO2 and 37°C. Every 24 h for 14 days, the medium from each well was separately collected and 0.5 mL fresh medium was added to each well. The collected samples were stored at -80°C freezer until analyzed.
# Albumin secretion was assayed following an ELISA protocol developed in-house. Briefly, 96-well high-binding ELISA plates were coated with 5 μg/well rat albumin in 100 μL PBS and incubated overnight at 4 °C. Coated plates were washed with PBS-Tween (0.05%) at least 3 times and 50 μL of the media or standards were added to wells in the plate. Albumin antibody was diluted 1:10000 in PBS-tween and 50 μL was added to each well and incubated overnight at 4 °C. At the end of incubation, the plates were washed with PBS-0.05% Tween at least 3 times. A substrate solution of o-phenylenediamine dihydro-chloride (OPD, 400 μg/mL) and 4 μM H2O2 was prepared in a citric acid buffer. […] Reaction was stopped by addition of 50 μL 8N sulfuric acid and the difference in absorbance was measured at 490 nm.
# Water solubility = type: physicochemical
smiles,measurement,setting,value
"CC(=O)OC1C(OC2OC(CO)C(O)C(OC(C)=O)C2OC(C)=O)OC(CO)C(O)C1OC(C)=O (stereo not shown) [4-O-Ac-Tre, trehalose tetraacetate]",enhancement of membrane permeability over regular trehalose,rat hepatocytes [1],did not observe a significant enhancement of the permeability
"CC(=O)OC1C(CO)OC(OC2OC(CO)C(OC(C)=O)C(OC(C)=O)C2OC(C)=O)C(OC(C)=O)C1OC(C)=O (stereo not shown) [6-O-Ac-Tre, trehalose hexaacetate]",Papp at 9 h,"[2]; Average±S.D. over 5, 15, 30 mM",0.5 ×10⁻⁶ cm/s
same,"Papp at 9 h, 5 mM","[2]; C* 5 mM, fit up to 9 h",0.22 ×10⁻⁶ cm/s
same,"Papp at 9 h, 15 mM","[2]; C* 15 mM, fit up to 9 h",0.39 ×10⁻⁶ cm/s
same,"Papp at 9 h, 30 mM","[2]; C* 30 mM, fit up to 9 h",0.8 ×10⁻⁶ cm/s
same,K^m of intracellular esterase deacetylation,"rat hepatocytes [3]; Average±S.D. over 5, 15, 30 mM",0.097 ± 0.006 mM
same,V^max of intracellular esterase deacetylation,"rat hepatocytes [3]; Average±S.D. over 5, 15, 30 mM",0.0167 ± 0.01 mM/s
same,K^m of intracellular esterase deacetylation,rat hepatocytes [3]; C* 5 mM,0.09 mM
same,V^max of intracellular esterase deacetylation,rat hepatocytes [3]; C* 5 mM,0.007 mM/s
same,K^m of intracellular esterase deacetylation,rat hepatocytes [3]; C* 15 mM,0.1 mM
same,V^max of intracellular esterase deacetylation,rat hepatocytes [3]; C* 15 mM,0.016 mM/s
same,K^m of intracellular esterase deacetylation,rat hepatocytes [3]; C* 30 mM,0.1 mM
same,V^max of intracellular esterase deacetylation,rat hepatocytes [3]; C* 30 mM,0.027 mM/s
same,K m,rat hepatocytes [3]; constant from 5 to 30 mM incubation,~ 0.1 mM
same,average conversion rate by esterases,rat hepatocytes [3]; hydrolysis of acetylated trehalose,60 ± 36 mM/h
same,"mitochondrial ΔΨ versus control (Mito-Tracker Red, JC-1 ratio)",rat hepatocytes [4],no significant difference
same,MTT viability versus control,rat hepatocytes [5],no significant difference
same,"uptake compared with trehalose, 2-Act-Tre and 4-Act-Tre",rat hepatocytes [1],at least one order of magnitude higher
same,overall morphology and lipid droplet formation versus control,rat hepatocytes [6],minimal changes
same,albumin secretion versus control,rat hepatocytes [7],eventually increased to similar levels as the control group within 10 days
CC(=O)OCC1OC(OC2OC(COC(C)=O)C(OC(C)=O)C(OC(C)=O)C2OC(C)=O)C(OC(C)=O)C(OC(C)=O)C1OC(C)=O (stereo not shown) [8-O-Ac-Tre],water solubility,Water solubility,not water soluble
CC(=O)OCC1OC(OC2OC(COC(C)=O)C(O)C(O)C2O)C(O)C(O)C1O (stereo not shown) [trehalose diacetate],enhancement of membrane permeability over regular trehalose,rat hepatocytes [1],did not observe a significant enhancement of the permeability
